Experimental data published in PMC2754199 (Journal of biomolecular screening, 2008).
Peptide text beside a SMILES is read from it. * marks the point of attachment. Cbz = O=C(OCc1ccccc1)*

Test system: calpain
Test: cell-based luminescent calpain activity assay

EC50: 14 ± 1.4 µM
Structure (SMILES): CC(C)[C@H](NC(=O)OCc1ccccc1)C(=O)N[C@H](C=O)Cc1ccccc1 [MDL-28170] (Cbz-Val-Phe-aldehyde)
